Experiments:
[1] = system: Serum cytokine concentration; assay: Serum cytokine protein (Multiplex MSD) after acute restraint stress; format: in vivo, mouse; conditions: restraint stress 2 h + Luma 3 mg/kg IP
Experimental: Multiplex Assays. In mouse serum, protein levels of IL-1b, IL-6, IL-10 and TNF-alpha are measured using a V-Plex Meso Scale Discovery (MSD) Multiplex spot assay Mouse Neuroinflammation 1 panel (Meso Scale Diagnostics, Rockville, MD). All samples are run in duplicates or triplicates according to manufacturer instructions and analyzed with MSD Discovery Workbench software (Meso Scale Diagnostics).
Restraint Stress Protocol.
Control mice receive vehicle treatment and are returned to their home cage before sample collection. Protein concentration is measured using the Multiplex MSD assay V-Plex technology, normalized to the control group. Results are expressed in pg/mL.

[2] = system: Sprague-Dawley rats; assay: Open Field Test (OFT), locomotion; format: in vivo, rat
Experimental: Behavioral Evaluation. All behavioral tests are performed in the morning with adult male Sprague-Dawley rats (n=9-11 per group for the experiments with LPS, and n=13-14 per group for the naïve rats).
Open Field Test (OFT). Rats are placed in an open field box (76.5×76.5×40 cm^3) under dim lighting and locomotor activity over a 10 minute period is measured using ANY-Maze Software (Stoelting Co., Wood Dale, IL).

[3] = system: hippocampal gene expression (NanoString gene sets); assay: NanoString nCounter hippocampal gene expression after coinjection of LPS and lumateperone; format: in vivo, mouse
Excerpt: NanoString. The mouse neuropathology panel includes 770 genes associated with themes of neurotransmission, neuron-glia interaction, neuroplasticity, cell structure integrity, neuroinflammation and metabolism. A total of 13 housekeeping genes are used for expression normalization (Aars: NM_146217.4, Asb10: NM_080444.4, Ccdc127: NM_024201.3, Cnot10: NM_153585.5, Csnk2a2: NM_009974.3, Fam104a: NM_138598.5, Gusb: NM_010368.1, Lars: NM_134137.2, Mtol: NM_026658.2, Supt7l: NM_028150.1, Tada2b: NM_001170454.1:3224, Tbp: NM_013684.3:70, and Xpnpepl: NM_133216.3:1826, see FIG. 1-1). Hippocampal RNA is extracted using the Qiagen microkit (Qiagen) and is evaluated by the Agilent 2100 Bioanalyzer (Agilent Technologies, Santa Clara, CA) to assess RNA concentration, quality, and integrity. Sample preparation, hybridization, and detection (100 ng per sample, n=5-6 per group) are carried out according to NanoString manufacturer's instructions (NanoString Technologies, Seattle, WA). The normalized data are transformed to log 2 score to express the fold change. NanoString results (raw and normalized counts) are derived from RCC files using the nSolver software (version 2.6; NanoString Technologies). A complementary gene software analysis tool, ROSALIND® Advanced Analysis Software (NanoString Technologies), is also used, which provides comprehensive free cloud-based data analysis for nCounter data by directly analyzing raw RCC files generated from NanoString. Data are imported into ROSALIND® Advanced Analysis Software for normalization, calculation of fold-changes, P values, identification of enriched pathways, and heatmaps.
The NanoString platform has been effectively used to quantitatively measure in vivo gene expression of target genes in several neuropathological mouse models.
It is calculated similarly to a unidirected global significance score, but it takes into account the sign of the t-statistic. Scores were calculated by nSolver software, using the control group as a reference.
Next, using ROSALIND® Advanced Analysis Software and a filter set to P<.

[4] = Inflammation gene, LPS 500 μg/kg + Luma 3 mg/kg, 2 h
[5] = Microglia gene, LPS 500 μg/kg + Luma 3 mg/kg, 2 h
[6] = Neuroprotect gene, LPS 500 μg/kg + Luma 3 mg/kg, 2 h

## CN1CCN2c3c(cccc31)[C@@H]1CN(CCCC(=O)c3ccc(F)cc3)CC[C@@H]12 [Lumateperone, 4-((6bR,10aS)-3-methyl-2,3,6b,9,10,10a-hexahydro-1H-pyrido[3′,4′: 4,5]pyrrolo[1,2,3-de]quinoxaline-8 (7H)-yl)-1-(4-fluorophenyl)-1-butanone]
[1]; control 0.7, stressed 1.65
  Serum IL-1b concentration: 0.81 pg/mL
[1]; control 6.75, stressed 10.28
  Serum TNF-alpha concentration: 7.67 pg/mL
[1]; control 17.18, stressed 86.78
  Serum IL-10 concentration: 70.03 pg/mL
[1]; control 141.3, stressed 627.4
  Serum IL-6 concentration: 137.7 pg/mL
[2]; naïve rats, Luma 1 mg/kg IP days 1 and 3, control 17.2
  OFT locomotion: 32.8 m
[2]; open field track length, rats, LPS 1 mg/kg SC + Luma 1 mg/kg IP, control 13.29, LPS + Vehicle 12.81
  OFT locomotion (distance travelled): 12.27 meters
[3]; [4]
  Casp4 hippocampal expression, Log2, LPS + Luma vs LPS: −2.24
  Ccr2 hippocampal expression, Log2, LPS + Luma vs LPS: −1.71
  Ikbkb hippocampal expression, Log2, LPS + Luma vs LPS: −0.132
  Il1b hippocampal expression, Log2, LPS + Luma vs LPS: −1.42
  Il1r1 hippocampal expression, Log2, LPS + Luma vs LPS: −0.309
  Lrg1 hippocampal expression, Log2, LPS + Luma vs LPS: −1.67
  Ly6a hippocampal expression, Log2, LPS + Luma vs LPS: −0.925
  Myd88 hippocampal expression, Log2, LPS + Luma vs LPS: −0.433
  Nfkb2 hippocampal expression, Log2, LPS + Luma vs LPS: −0.972
  Osmr hippocampal expression, Log2, LPS + Luma vs LPS: −1.21
  Socs3 hippocampal expression, Log2, LPS + Luma vs LPS: −1.57
  Tnfrsf1a hippocampal expression, Log2, LPS + Luma vs LPS: −0.434
  Tnfrsf1b hippocampal expression, Log2, LPS + Luma vs LPS: −0.31
[3]; LPS 500 μg/kg + Luma 3 mg/kg coinjected, 2 h, LPS alone 0.181
  Directed global significance score vs control group, gene set Oligodendrocyte function: 0.48
[3]; LPS 500 μg/kg + Luma 3 mg/kg coinjected, 2 h, LPS alone 0.28
  Directed global significance score vs control group, gene set Insulin signaling: 0.809
[3]; LPS 500 μg/kg + Luma 3 mg/kg coinjected, 2 h, LPS alone 0.312
  Directed global significance score vs control group, gene set Epigenetic regulation: 0.892
[3]; LPS 500 μg/kg + Luma 3 mg/kg coinjected, 2 h, LPS alone 0.377
  Directed global significance score vs control group, gene set Microglia function: 0.915
[3]; LPS 500 μg/kg + Luma 3 mg/kg coinjected, 2 h, LPS alone 0.499
  Directed global significance score vs control group, gene set Cellular stress: 0.813
[3]; LPS 500 μg/kg + Luma 3 mg/kg coinjected, 2 h, LPS alone 0.507
  Directed global significance score vs control group, gene set Carbohydrate metabolism: 0.668
[3]; LPS 500 μg/kg + Luma 3 mg/kg coinjected, 2 h, LPS alone 0.571
  Directed global significance score vs control group, gene set Adaptive immune response: 0.938
[3]; LPS 500 μg/kg + Luma 3 mg/kg coinjected, 2 h, LPS alone 0.578
  Directed global significance score vs control group, gene set DNA damage: 0.042
[3]; LPS 500 μg/kg + Luma 3 mg/kg coinjected, 2 h, LPS alone 0.588
  Directed global significance score vs control group, gene set Autophagy: 0.548
[3]; LPS 500 μg/kg + Luma 3 mg/kg coinjected, 2 h, LPS alone 0.76
  Directed global significance score vs control group, gene set Growth factor signaling: 0.698
[3]; LPS 500 μg/kg + Luma 3 mg/kg coinjected, 2 h, LPS alone 0.876
  Directed global significance score vs control group, gene set Notch: 1.05
[3]; LPS 500 μg/kg + Luma 3 mg/kg coinjected, 2 h, LPS alone 0.915
  Directed global significance score vs control group, gene set Apoptosis: −0.453
[3]; LPS 500 μg/kg + Luma 3 mg/kg coinjected, 2 h, LPS alone 0.939
  Directed global significance score vs control group, gene set Innate immune response: −0.655
[3]; LPS 500 μg/kg + Luma 3 mg/kg coinjected, 2 h, LPS alone 0.993
  Directed global significance score vs control group, gene set Cytokine signaling: −0.599
[3]; LPS 500 μg/kg + Luma 3 mg/kg coinjected, 2 h, LPS alone 1.086
  Directed global significance score vs control group, gene set Inflammatory signaling: −0.93
[3]; LPS 500 μg/kg + Luma 3 mg/kg coinjected, 2 h, LPS alone 1.215
  Directed global significance score vs control group, gene set NF-kB: −0.689
[3]; LPS 500 μg/kg + Luma 3 mg/kg coinjected, 2 h, LPS alone 1.391
  Directed global significance score vs control group, gene set Astrocyte function: −0.308
[3]; LPS 500 μg/kg + Luma 3 mg/kg coinjected, 2 h, LPS alone −0.144
  Directed global significance score vs control group, gene set Angiogenesis: 0.891
[3]; LPS 500 μg/kg + Luma 3 mg/kg coinjected, 2 h, LPS alone −0.148
  Directed global significance score vs control group, gene set Cell cycle: 0.385
[3]; LPS 500 μg/kg + Luma 3 mg/kg coinjected, 2 h, LPS alone −0.192
  Directed global significance score vs control group, gene set Lipid metabolism: 0.89
[3]; LPS 500 μg/kg + Luma 3 mg/kg coinjected, 2 h, LPS alone −0.422
  Directed global significance score vs control group, gene set Neurons and neurotransmission: 0.979
[3]; LPS 500 μg/kg + Luma 3 mg/kg coinjected, 2 h, LPS alone −0.476
  Directed global significance score vs control group, gene set Wnt: 1.186
[3]; LPS 500 μg/kg + Luma 3 mg/kg coinjected, 2 h, LPS alone −0.583
  Directed global significance score vs control group, gene set Matrix remodeling: 0.447
[3]; LPS+Luma versus LPS alone, filter P<.04999
  genes that promote inflammation (e.g., Osmr, Tnfrsf1a, Tnfrsf11b, Prl, Il1r1), ROSALIND analysis: significantly downregulates
[3]; Luma alone
  Directed global significance score vs control group, gene set Adaptive immune response: 0.344
  Directed global significance score vs control group, gene set Angiogenesis: 0.616
  Directed global significance score vs control group, gene set Apoptosis: −0.442
  Directed global significance score vs control group, gene set Astrocyte function: −0.837
  Directed global significance score vs control group, gene set Autophagy: −0.731
  Directed global significance score vs control group, gene set Carbohydrate metabolism: −0.837
  Directed global significance score vs control group, gene set Cell cycle: −0.75
  Directed global significance score vs control group, gene set Cellular stress: −0.432
  Directed global significance score vs control group, gene set Cytokine signaling: −0.543
  Directed global significance score vs control group, gene set DNA damage: −0.614
  Directed global significance score vs control group, gene set Epigenetic regulation: 0.729
  Directed global significance score vs control group, gene set Growth factor signaling: 0.226
  Directed global significance score vs control group, gene set Inflammatory signaling: −1.032
  Directed global significance score vs control group, gene set Innate immune response: −0.611
  Directed global significance score vs control group, gene set Insulin signaling: 0.858
  Directed global significance score vs control group, gene set Lipid metabolism: −0.818
  Directed global significance score vs control group, gene set Matrix remodeling: −0.4
  Directed global significance score vs control group, gene set Microglia function: 0.466
  Directed global significance score vs control group, gene set NF-kB: −0.499
  Directed global significance score vs control group, gene set Neurons and neurotransmission: 0.435
  Directed global significance score vs control group, gene set Notch: 0.834
  Directed global significance score vs control group, gene set Oligodendrocyte function: −1.176
  Directed global significance score vs control group, gene set Wnt: 0.9
[3]; [5]
  Cd36 hippocampal expression, Log2, LPS + Luma vs LPS: 0.332
  Cx3cr1 hippocampal expression, Log2, LPS + Luma vs LPS: 0.231
  Maff hippocampal expression, Log2, LPS + Luma vs LPS: 1.21
  P2ry12 hippocampal expression, Log2, LPS + Luma vs LPS: 0.14
  Ptgs2 hippocampal expression, Log2, LPS + Luma vs LPS: −0.358
  Tmem100 hippocampal expression, Log2, LPS + Luma vs LPS: 0.186
  Tmem144 hippocampal expression, Log2, LPS + Luma vs LPS: 0.227
[3]; [6]
  Cldn5 hippocampal expression, Log2, LPS + Luma vs LPS: 0.812
  Egr1 hippocampal expression, Log2, LPS + Luma vs LPS: 0.87
  Fos hippocampal expression, Log2, LPS + Luma vs LPS: 2.27
  Ngf hippocampal expression, Log2, LPS + Luma vs LPS: 0.126
  Vegfa hippocampal expression, Log2, LPS + Luma vs LPS: 0.227

Reference: US20250195510A1, “NOVEL METHODS” (priority 2022, published 2025)
